# According to patent US11098040B2, “Compounds and methods of use” (Ferro Therapeutics, Inc., priority 2018, dated 2021):
# Where two headings read alike, the source gives them in different places.
# What was measured:
# [1] = PK profile, IV plasma concentration and PK parameters; format: in vivo; conditions: Balb/C nude, mouse
# Experimental: The PK profiles of compounds 148, 149, 150, 156 and 169 are shown below. Compound 156 was formulated in 30% Kolliphor EL (Cremophor EL) in water and compounds 148, 149, 150 and 169 were formulated in 30% Kolliphore EL with 1% poloxamar 407 in water. All compounds were dosed at 5 mg/kg. Blood samples were collected at various time points and analyzed using the method described above.
# 786-O = assay: Cell proliferation (Alamar Blue) assay, 786-O renal cell carcinoma, with/without ferrostatin; format: cell-based; conditions: Homo sapiens, 786-0, Cell Line 786-O; read-out: IC50
# Experimental: Cell viability assay was performed to assess the potency of the compounds in human cancer cell lines 786-O (renal cell carcinoma) and SJSA-1 (osteosarcoma). Additional cell lines, such as those described above in Example 4 as well as various others, e.g., pancreatic cancer cell lines (Panc 02.13, BxPC-3, Panc 12, Panc 02.03, Panc 6.03, PSN-1, HPAC, and Capan-1) and prostate cancer cell lines (PC-3, DU145, 22Rv1, NCI-H660, BPH1, LNCaP, BM-1604, and MDA PCa 2b), were tested for select compounds as shown in Table 25.
# Cells (SJSA-1, 786-O and A431) were seeded (5000 cells/100 μL/well) in 96-well tissue culture plate and incubated at 37° C./5% CO2 for 16-24 hours. The cells were then treated with compounds (25 μL of 5×). The compound concentrations were 10-0.0005 μM prepared in 3-fold serial dilutions with final DMSO concentration of 1%. The plates were then incubated for 24 h at 37° C./5% CO2 in a moist environment. Then Alamar Blue™ reagent (final concentration 1×-12.5 μL) was added to each well and incubated for 1.5 hours at 37° C./5% CO2. The plates were read on fluorescence reader at 540 nm excitation and 590 nm emission wavelengths. The IC50 values were subsequently determined using a sigmoidal dose-response curve (variable slope) in GraphPad Prism® 5 software.
# Studies have shown that lipophilic antioxidants, such as ferrostatin, can rescue cells from GPX4 inhibition-induced ferroptosis. For instance, mesenchymal state GPX4-knockout cells can survive in the presence of ferrostatin, however, when the supply of ferrostatin is terminated, these cells undergo ferroptosis (see, e.g., Viswanathan et al., Nature 547:453-7, 2017). […] Accordingly, the ability of a molecule to induce ferroptotic cancer cell death, and that such ability is admonished by the addition of ferrostatin, is clear indication that the molecule is an GPX4 inhibitor.
# SJSA-1 = assay: Cell proliferation (Alamar Blue) assay, SJSA-1 osteosarcoma, with/without ferrostatin; format: cell-based, human; conditions: Homo sapiens, SJSA-1, Cell Line SJSA-1; read-out: IC50
# Outline: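 Cells seeded at 5000/well, 16-24 h, then exposed 24 h at 37° C to compound, 10-0.0005 μM in 3-fold dilutions, 1% DMSO final. Alamar Blue fluorescence (ex 540/em 590 nm) read after 1.5 h; IC50 from variable-slope sigmoidal fit.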
# A549 = assay: Cell viability assay, A549 cells; format: cell-based; conditions: Homo sapiens, A549, Cell Line A549; read-out: IC50
# Experimental: Example 5: Inducer Compound Effect on Growth of A549 and KP4 Cells
# Cell viability assay was performed to assess the potency of the compounds in cancer cell line KP4 (pancreatic ductal adenocarcinoma). Cells at a density of 1,000-10,000 cells/well were seeded in 96-well plates and incubated at 37° C. overnight. A series of 9 different concentrations of compound stocks (500×) were created by 3-fold serial dilution in DMSO. These compounds were further diluted in culture media and then added to cells so that the final DMSO concentration was equal to 0.25% or less. After 96 hours of incubation, 50 μL of CellTiter Glo reagent (Promega) was added to each well and luminescence was measured after 10 minutes using EnVision (PerkinElmer). All compounds were tested initially from 30 μM as the top concentration in duplicates (range of 4.6 nM-30 μM). […] Luminescence from cells treated with DMSO alone was set as Max and % of inhibition was calculated as follows: Inhibition %=(Max-Sample value)/Max*100. Data was analyzed using XL-fit software (ID Business Solutions Ltd.). IC50, relative IC50, or % of top inhibition was calculated. […]
# MiaPaCa-2 = assay: Cell viability assay (CellTiter Glo), pancreatic carcinoma MiaPaCa-2; format: cell-based; conditions: Homo sapiens, MIA PaCa-2; pancreatic carcinoma, 96 hours, CellTiter Glo; read-out: IC50 MiaPaCa-2
# Experimental: (§1) Cell viability assay was performed to assess the potency of the compounds in human cancer cell lines KP4 (pancreatic ductal adenocarcinoma), MiaPaCa-2 (pancreatic carcinoma), AsPC-1 (pancreatic adenocarcinoma, ascites), 143B (osteosarcoma), and SJSA-1 (osteosarcoma). Selected compounds were also assayed in a human breast epithelial cell line MCF-10A, a nontumorigenic cell line as a control to assess differential activity. Cells at a density of 500-5,000 cells/well were seeded in 96-well plates and incubated at 37° C. overnight. A series of 9 different concentrations of compound stocks (500×) were created by 3-fold serial dilution in DMSO. These compounds were further diluted in culture media and then added to cells so that the final DMSO concentration was equal to 0.25% or less. After 96 hours of incubation, 50 μL of CellTiter Glo reagent (Promega) was added to each well and luminescence was measured after 10 minutes using EnVision (PerkinElmer). Compounds titrated from top concentration of up to 30 μM. The select compounds were tested initially from 30 μM as the top concentration in duplicates (range of 4.6 nM-30 μM). […] Luminescence from cells treated with DMSO alone was set as Max and % of inhibition was calculated as follows: Inhibition %=(Max-Sample value)/Max*100. Data was analyzed using XL-fit software (ID Business Solutions Ltd.). IC50, relative IC50, or % of top inhibition was calculated.
# The results of the assay in the pancreatic cell lines are given in Table 15a for PANC1, Table 15b for MiaPaCa-2, and Table 15c for AsPC-1.
# MCF-10A = assay: Cell viability assay (CellTiter Glo), non-tumorigenic breast epithelial cell line MCF-10A; format: cell-based; conditions: Homo sapiens, 96 hours
# Experimental: as §1
# Paclitaxel was used as the positive control for cytotoxicity.
# [2] = iv, 5 mg/kg, 30% Kolliphore EL with 1% poloxamar 407 in water
# [3] = iv, 5 mg/kg, 30% Kolliphor EL in water (Table 10b)
SMILES,IC50 (786-O) [µM],IC50 (SJSA-1) [µM],IC50 (A549) [µM],also measured
"C[C@H]1Cc2c([nH]c3ccccc23)[C@H](c2ccc(NC34CC5CC(CC(C5)C3)C4)cc2)N1C(=O)CCl [Compound 150, 1-((1S,3S)-1-(4-(((3R,5R,7R)-adamantan-1-yl)amino)phenyl)-3-methyl-1,3,4,9-tetrahydro-2H-pyrido[3,4-b]indol-2-yl)-2-chloroethan-1-one]",0.009,0.008,–,"C0 [1, 2]: 3.4 µg/mL; Cmax [1, 2]: 2.26 µg/mL; clearance [1, 2]: 6.78 L/h/kg; AUC(0-t) ([1]; iv, 5 mg/kg, 30% Kolliphore EL with 1% poloxamar 407 in water, read-out: AUC0-t): 0.735 µg·h/mL; AUC(0-inf) ([1]; iv, 5 mg/kg, 30% Kolliphore EL with 1% poloxamar 407 in water, read-out: AUC0-∞): 0.74 µg·h/mL; Vd ([1]; iv, 5 mg/kg, 30% Kolliphore EL with 1% poloxamar 407 in water, read-out: Vd): 3.25 L/kg; Vd ([1]; iv, 5 mg/kg, 30% Kolliphore EL with 1% poloxamar 407 in water, read-out: Vss): 1.64 L/kg; half-life ([1]; iv, 5 mg/kg, 30% Kolliphore EL with 1% poloxamar 407 in water, time points considered 0.25-2 h): 19.8 min"
C#CC(=O)N1[C@@H](CCCC)Cc2c([nH]c3c(F)cc(F)cc23)[C@@H]1c1ccc(F)cc1 [Compound 156],0.0751,0.0422,4.29,"concentration at 5 min ([1]; 5 mg/kg IV, BID q12, post 2nd dose, 5 min, 30% Kolliphor EL in water): 18.5 µg/mL; concentration at 0.25 h ([1]; 5 mg/kg IV, BID q12, post 2nd dose, 0.25 h, 30% Kolliphor EL in water): 4.64 µg/mL; concentration at 0.5 h ([1]; 5 mg/kg IV, BID q12, post 2nd dose, 0.5 h, 30% Kolliphor EL in water): 0.984 µg/mL; concentration at 1 h ([1]; 5 mg/kg IV, BID q12, post 2nd dose, 1 h, 30% Kolliphor EL in water): 0.302 µg/mL; concentration at 2 h ([1]; 5 mg/kg IV, BID q12, post 2nd dose, 2 h, 30% Kolliphor EL in water): 0.105 µg/mL; concentration at 4 h ([1]; 5 mg/kg IV, BID q12, post 2nd dose, 4 h, 30% Kolliphor EL in water): 0.0459 µg/mL; concentration at 8 h ([1]; 5 mg/kg IV, BID q12, post 2nd dose, 8 h, 30% Kolliphor EL in water): 0.0244 µg/mL; C0 [1, 3]: 38.2 µg/mL; MRT inf [1, 3]: 33.2 min; clearance [1, 3]: 0.87 L/h/kg; half-life [1, 3]: 180 min; AUC(0-inf) ([1]; iv, 5 mg/kg, 30% Kolliphor EL in water (Table 10b), read-out: AUCInf): 5.92 µg·h/mL; AUC(0-t) ([1]; iv, 5 mg/kg, 30% Kolliphor EL in water (Table 10b), read-out: AUClast): 5.81 µg·h/mL; Vd ([1]; iv, 5 mg/kg, 30% Kolliphor EL in water (Table 10b), read-out: Vss): 0.48 L/kg; Vd ([1]; iv, 5 mg/kg, 30% Kolliphor EL in water (Table 10b), read-out: Vz): 3.72 L/kg"
C#CC(=O)N1[C@@H](c2ccc(Cl)cc2)c2[nH]c3ccccc3c2C[C@@H]1C [Compound 196],0.267,0.133,20.6,–
C#CC(=O)N1[C@@H](c2c(F)cc(F)cc2F)c2[nH]c3ccccc3c2C[C@@H]1C [Compound 197],0.133,0.0102,5.64,–
C#CC(=O)N1[C@@H](c2cc(F)cc(F)c2)c2[nH]c3ccccc3c2C[C@@H]1C [Compound 198],0.181,0.09,11.2,–
C#CC(=O)N1[C@@H](c2ccc(F)c(F)c2)c2[nH]c3ccccc3c2C[C@@H]1C [Compound 199],0.529,0.338,19.5,–
C#CC(=O)N1[C@@H](c2ccc(F)cc2F)c2[nH]c3ccccc3c2C[C@@H]1C [Compound 200],0.701,0.448,10.9,–
C#CC(=O)N1[C@@H](c2c(F)cccc2F)c2[nH]c3ccccc3c2C[C@@H]1C [Compound 201],0.642,0.19,14.8,–
C#CC(=O)N1[C@@H](CCCC)Cc2c([nH]c3ccccc23)[C@@H]1c1ccc(F)cc1 [Compound 205],0.0619,0.0324,4.41,–
C#CC(=O)N1[C@@H](c2ccc(F)cc2)c2[nH]c3ccccc3c2C[C@@H]1C [Compound 206],1.1,0.468,21.8,–
C#CCOc1ccc2[nH]c3c(c2c1)C[C@H](C)N(C(=O)CCl)[C@H]3c1ccc(NC23CC4CC(CC(C4)C2)C3)cc1 [Compound 207],0.214,0.0868,13.3,–
C#CC(=O)N1[C@@H](CCCC)Cc2c([nH]c3ccccc23)[C@@H]1c1ccc(N2CCOCC2)cc1 [Compound 216],0.337,0.163,22.2,–
C[C@H]1Cc2c([nH]c3ccccc23)[C@H](c2ccc(F)cc2)N1C(=O)CCl [Compound 221],0.137,0.0935,2.81,–
C[C@H]1Cc2c([nH]c3ccccc23)[C@H](c2ccc(S(F)(F)(F)(F)F)cc2)N1C(=O)CCl [Compound 222],0.17,0.115,3.35,–
C[C@H]1Cc2c([nH]c3ccccc23)[C@H](C23CC(F)(C2)C3)N1C(=O)CCl [Compound 226],1.26,1.16,8.62,–
COC(=O)[C@H]1Cc2c([nH]c3ccccc23)[C@H](c2ccc(C(=O)NCCN)cc2)N1C(=O)CCl [Example 15],–,–,–,IC50 (MiaPaCa-2): 1.32 µM
COC(=O)[C@H]1Cc2c([nH]c3ccccc23)[C@H](c2ccc(C(=O)OCC3(C)CC3)cc2)N1C(=O)CCl [Example 84],–,–,–,IC50 (MCF-10A): 0.48 µM
COC(=O)[C@H]1Cc2c([nH]c3ccccc23)[C@H](c2ccc(C(=O)OCC3CCCCC3)cc2)N1C(=O)CCl [Example 89],–,–,–,IC50 (MCF-10A): 0.42 µM
"CC(=O)O[C@H]1C(=O)[C@@]2(C)[C@H]([C@H](OC(=O)c3ccccc3)[C@]3(O)C[C@H](OC(=O)[C@H](O)[C@@H](NC(=O)c4ccccc4)c4ccccc4)C(C)=C1C3(C)C)[C@]1(OC(C)=O)CO[C@@H]1C[C@@H]2O [paclitaxel, Paclitaxel, reference compound]",–,–,–,IC50 (MCF-10A): 0.001 µM
